Assay results: patent US5447926A, “Quinolone carboxylic acid derivatives” (SS Pharmaceutical Co., Ltd., priority 1990, dated 1995)
≈ marks a conversion by molar mass, not a printed value.

Columns and labels:
Shigella flexneri 2b = assay type: cell-based; conditions: 24 h
[1] = test system: Klebsiella pneumonias ATCC 10031; conditions: ATCC10031, 24 h
Escherichia coli H-12 = conditions: H12, 24 h
Sarcina lutea ATCC 9341 = conditions: Micrococcus luteus, ATCC9341, 24 h
[2] = test system: Strepto occus faecalis IFO 12964; conditions: 24 h
[3] = test system: M.R. Staphylococcus aureus 415; conditions: 24 h
[4] = test system: M.R. Staphylococcus aureus 421; conditions: 24 h
[5] = test system: Pseudomonas aeruginosa P2; conditions: P2, 24 h
[6] = test system: Pseudomonas aeruginosa IFO 12582; conditions: IFO12582, 24 h
[7] = test system: Pseudomonas aeruginosa IFO 13736; conditions: IFO13736, 24 h
[8] = test system: Micrococcus lysodeikticus IFO 3333; conditions: Micrococcus luteus, IFO3333, 24 h
[9] = test system: M.R. Staphylococcus aureus 419; conditions: 24 h
Proteus rettgeri = conditions: Providencia rettgeri, 24 h
[10] = test system: Staphylococcus aureus Smith; conditions: 24 h
[11] = test system: Staphylococcus aureus FDA 209P; conditions: FDA209P, 24 h
[12] = test system: M.R. Staphylococcus aureus 395; conditions: 24 h
[13] = test system: Staphylococcus aureus Terajima; conditions: 24 h
Salmonella typhi TD = assay type: cell-based; conditions: Salmonella enterica, 24 h
[14] = test system: Staphylococcus epidermidis ATCC 12228; conditions: ATCC12228, 24 h
Escherichia coli 0-1 = conditions: Escherichia coli, 01, 24 h
[15] = test system: M.R. Staphylococcus aureus 420; conditions: 24 h
[16] = test system: Bacillus subtilis ATCC 6633; conditions: ATCC6633, 24 h
Serratia marcescens NHL = conditions: 24 h
Proteus vulgaris OXK = conditions: 24 h
[17] = test system: Klebsiella pneumonias IFO 13541; assay type: cell-based; conditions: IFO13541, 24 h, Gram-negative, Mueller Hinton Medium, 10^6 /ml, 37° C.

SMILES | MIC (Shigella flexneri 2b) [µg/mL] | MIC [1] [µg/mL] | MIC (Escherichia coli H-12) [µg/mL] | MIC (Sarcina lutea ATCC 9341) [µg/mL] | MIC [2] [µg/mL] | MIC [3] [µg/mL] | MIC [4] [µg/mL] | MIC [5] [µg/mL] | MIC [6] [µg/mL] | MIC [7] [µg/mL] | MIC [8] [µg/mL] | MIC [9] [µg/mL] | MIC (Proteus rettgeri) [µg/mL] | MIC [10] [µg/mL] | MIC [11] [µg/mL] | MIC [12] [µg/mL] | MIC [13] [µg/mL] | MIC (Salmonella typhi TD) [µg/mL] | MIC [14] [µg/mL] | MIC (Escherichia coli 0-1) [µg/mL] | also measured
O=C1CCN(c2c(F)cc3c(=O)c(C(=O)O)cn(C4CC4)c3c2Cl)CCN1 [Compound 2, 8-Chloro-1-cyclopropyl-6-fluoro-7-(2,3,4,5,6,7-hexahydro-1H-1,4-diazepin-5-one-1-yl)-4-oxoquinoline-3-carboxylic acid] | 0.003 (≈ 0.00762 µM) | 0.012 (≈ 0.0305 µM) | 0.39 (≈ 0.99 µM) | 0.195 (≈ 0.495 µM) | 0.195 (≈ 0.495 µM) | 0.024 (≈ 0.0609 µM) | 0.024 (≈ 0.0609 µM) | 12.5 (≈ 31.7 µM) | 6.25 (≈ 15.9 µM) | 6.25 (≈ 15.9 µM) | 0.049 (≈ 0.124 µM) | 0.024 (≈ 0.0609 µM) | 0.78 (≈ 1.98 µM) | 0.012 (≈ 0.0305 µM) | 0.012 (≈ 0.0305 µM) | 0.049 (≈ 0.124 µM) | 0.098 (≈ 0.249 µM) | 0.098 (≈ 0.249 µM) | 0.049 (≈ 0.124 µM) | 0.195 (≈ 0.495 µM) | MIC [15]: 0.024 µg/mL (≈ 0.0609 µM); MIC [16]: 0.024 µg/mL (≈ 0.0609 µM); MIC (Serratia marcescens NHL): 0.78 µg/mL (≈ 1.98 µM); MIC (Proteus vulgaris OXK): 0.024 µg/mL (≈ 0.0609 µM); MIC [17]: 0.098 µg/mL (≈ 0.249 µM)
N[C@@H]1CCCCN(c2c(F)cc3c(=O)c(C(=O)O)cn(C4CC4)c3c2Cl)C1 [Compound 15] | 0.006 (≈ 0.0152 µM) | 0.012 (≈ 0.0305 µM) | 0.098 (≈ 0.249 µM) | 0.098 (≈ 0.249 µM) | 0.195 (≈ 0.495 µM) | 0.024 (≈ 0.0609 µM) | 0.049 (≈ 0.124 µM) | 1.56 (≈ 3.96 µM) | 0.78 (≈ 1.98 µM) | 1.56 (≈ 3.96 µM) | 0.195 (≈ 0.495 µM) | 0.024 (≈ 0.0609 µM) | 0.195 (≈ 0.495 µM) | 0.024 (≈ 0.0609 µM) | 0.012 (≈ 0.0305 µM) | 0.049 (≈ 0.124 µM) | 0.195 (≈ 0.495 µM) | 0.049 (≈ 0.124 µM) | 0.049 (≈ 0.124 µM) | 0.098 (≈ 0.249 µM) | MIC [15]: 0.049 µg/mL (≈ 0.124 µM); MIC [16]: 0.024 µg/mL (≈ 0.0609 µM); MIC (Serratia marcescens NHL): 0.195 µg/mL (≈ 0.495 µM); MIC (Proteus vulgaris OXK): 0.049 µg/mL (≈ 0.124 µM); MIC [17]: 0.049 µg/mL (≈ 0.124 µM)
CC1COc2c(N3CCN(C)CC3)c(F)cc3c(=O)c(C(=O)O)cn1c23 (stereo not drawn) [Ofloxacin, reference compound] | 0.012 (≈ 0.0332 µM) | 0.024 (≈ 0.0664 µM) | 0.098 (≈ 0.271 µM) | 3.12 (≈ 8.63 µM) | 1.56 (≈ 4.32 µM) | 0.39 (≈ 1.08 µM) | 0.39 (≈ 1.08 µM) | 0.78 (≈ 2.16 µM) | 3.12 (≈ 8.63 µM) | 1.56 (≈ 4.32 µM) | 1.56 (≈ 4.32 µM) | 0.39 (≈ 1.08 µM) | 0.098 (≈ 0.271 µM) | 0.39 (≈ 1.08 µM) | 0.195 (≈ 0.54 µM) | 0.39 (≈ 1.08 µM) | 0.78 (≈ 2.16 µM) | 0.024 (≈ 0.0664 µM) | 0.78 (≈ 2.16 µM) | 0.098 (≈ 0.271 µM) | MIC [15]: 0.39 µg/mL (≈ 1.08 µM); MIC [16]: 0.098 µg/mL (≈ 0.271 µM); MIC (Serratia marcescens NHL): 0.049 µg/mL (≈ 0.136 µM); MIC (Proteus vulgaris OXK): 0.049 µg/mL (≈ 0.136 µM); MIC [17]: 0.024 µg/mL (≈ 0.0664 µM)
